Source: patent US20240384268A1, “Oligonucleotides” (Hudson Institute of Medical Research, priority 2021, published 2024)
In the oligonucleotide strings, read from the 5' end, every base follows the letter of its sugar. An asterisk marks phosphorothioate; unmarked linkages are phosphodiester. Other units and linkages are bracketed, terminal groups are in braces. A string of capitals states the bases alone. d = 2'-deoxy (DNA)

Each substance was assayed against T1, TLR3 (Homo sapiens, UniProt O15455) (assay: HEK-TLR3 NF-κB-luciferase reporter, poly(I:C) stimulation). Conditions: 500 nM ASOs/ODNs, poly(I:C) 1 μg/ml.
T1 sequence (O15455 24-904): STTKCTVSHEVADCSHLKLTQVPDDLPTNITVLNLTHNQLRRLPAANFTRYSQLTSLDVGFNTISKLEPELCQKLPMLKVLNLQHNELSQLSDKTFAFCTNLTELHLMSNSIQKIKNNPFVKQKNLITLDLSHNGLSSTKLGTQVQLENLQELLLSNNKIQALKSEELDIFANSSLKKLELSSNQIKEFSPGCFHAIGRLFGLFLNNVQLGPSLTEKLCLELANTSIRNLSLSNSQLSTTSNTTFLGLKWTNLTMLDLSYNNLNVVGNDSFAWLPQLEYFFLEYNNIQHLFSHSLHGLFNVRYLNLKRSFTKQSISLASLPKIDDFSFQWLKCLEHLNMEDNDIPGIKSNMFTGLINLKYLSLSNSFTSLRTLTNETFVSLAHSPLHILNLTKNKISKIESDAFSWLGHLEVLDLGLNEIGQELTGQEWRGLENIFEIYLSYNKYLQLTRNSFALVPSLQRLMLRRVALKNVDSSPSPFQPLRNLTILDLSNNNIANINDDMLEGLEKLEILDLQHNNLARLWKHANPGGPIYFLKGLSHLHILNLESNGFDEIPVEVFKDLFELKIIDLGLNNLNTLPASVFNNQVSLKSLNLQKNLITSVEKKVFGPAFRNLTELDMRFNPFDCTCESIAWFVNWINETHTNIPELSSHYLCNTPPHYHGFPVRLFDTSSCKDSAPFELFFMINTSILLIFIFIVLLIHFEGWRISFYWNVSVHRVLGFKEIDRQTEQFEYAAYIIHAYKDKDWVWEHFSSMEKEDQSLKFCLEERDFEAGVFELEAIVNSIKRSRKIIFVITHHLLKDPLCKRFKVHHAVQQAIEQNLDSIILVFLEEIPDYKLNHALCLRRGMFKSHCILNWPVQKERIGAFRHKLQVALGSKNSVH
Assay type: cell-based
Set-up: host or cells: HEK-Blue hTLR3 (HEK293)

Substance | inhibition of polyI:C sensing by TLR3 at 500 nM (in words)
T*G*C* T*T*G* A*C*A* T*C*C* T*G*G* A*G*G* G*G*T* T*G*T (TGCTTGACATCCTGGAGGGGTTGT; DNA, all phosphorothioate, methylation of C not given here) [IRS957, reference compound] | blocked polyL:C sensing
T*G*C* T*T*G* C*A*A* G*C*T* T*G*C* A*A*G* C*A (TGCTTGCAAGCTTGCAAGCA; DNA, all phosphorothioate, methylation of C not given here) [IRS661, reference compound] | blocked polyL:C sensing
T*T*C* A*A*A* T*T*C* A*A*A* T*T*C* A*A*A* T*T*C* A*A*A (dT*dT*dC*dA*dA*dA*dT*dT*dC*dA*dA*dA*dT*dT*dC*dA*dA*dA*dT*dT*dC*dA*dA*dA) [C151, reference compound] | only partially reduced polyL:C-dependent TLR3 activation

Same assay, conditions: 2 μM 3-mer DNA PS, 500 ng/ml polyI:C

Substance | inhibition of TLR3 sensing by 3-mer DNA PS oligos
dT*dA*dC [TAC] | strongest DNA 3-mer

Same assay, conditions: 3-mers DNA PS 45 min, then 500 ng/ml polyI:C overnight, NF-κB-luciferase normalised to polyI:C only (Ligand 1.000, NT 0.000)

Substance | TLR3 2uM
dA*dA*dT [AAT] | 0.877
dA*dC*dT [ACT] | 0.818
dA*dG*dT [AGT] | 0.865
dA*dT*dA [ATA] | 0.827
dA*dT*dC [ATC] | 0.834
dA*dT*dG [ATG] | 0.849
dA*dT*dT [ATT] | 1.012
dC*dA*dT [CAT] | 0.828
dC*dC*dT [CCT] | 0.914
dC*dG*dT [CGT] | 0.755
dC*dT*dA [CTA] | 0.864
dC*dT*dC [CTC] | 0.911
dC*dT*dG [CTG] | 0.843
dC*dT*dT [CTT] | 0.901
dG*dA*dT [GAT] | 0.864
dG*dC*dT [GCT] | 0.998
dG*dG*dT [GGT] | 0.959
dG*dT*dA [GTA] | 0.818
dG*dT*dC [GTC] | 0.914

Substance | TLR3 2uM
dG*dT*dG [GTG] | 0.929
dG*dT*dT [GTT] | 1.009
dT*dA*dA [TAA] | 0.968
dT*dA*dC [TAC] | 0.704
dT*dA*dG [TAG] | 0.769
dT*dA*dT [TAT] | 0.877
dT*dC*dA [TCA] | 0.792
dT*dC*dC [TCC] | 0.868
dT*dC*dG [TCG] | 0.931
dT*dC*dT [TCT] | 1.230
dT*dG*dA [TGA] | 0.743
dT*dG*dC [TGC] | 0.795
dT*dG*dG [TGG] | 0.773
dT*dG*dT [TGT] | 0.884
dT*dT*dA [TTA] | 0.855
dT*dT*dC [TTC] | 0.928
dT*dT*dG [TTG] | 0.990
dT*dT*dT [TTT] | 1.139

These substances were tested against T2, human TLR7 (Homo sapiens, UniProt Q9NYK1) (assay: HEK-TLR7 NF-κB-luciferase reporter, R848 stimulation). Conditions: HEK-TLR7; 2 μM 3-mer DNA on a PS backbone; R848.
T2 construct: HA; host or cells: 293XL-hTLR7-HA (HEK293)
T2 sequence (Q9NYK1 27-1049): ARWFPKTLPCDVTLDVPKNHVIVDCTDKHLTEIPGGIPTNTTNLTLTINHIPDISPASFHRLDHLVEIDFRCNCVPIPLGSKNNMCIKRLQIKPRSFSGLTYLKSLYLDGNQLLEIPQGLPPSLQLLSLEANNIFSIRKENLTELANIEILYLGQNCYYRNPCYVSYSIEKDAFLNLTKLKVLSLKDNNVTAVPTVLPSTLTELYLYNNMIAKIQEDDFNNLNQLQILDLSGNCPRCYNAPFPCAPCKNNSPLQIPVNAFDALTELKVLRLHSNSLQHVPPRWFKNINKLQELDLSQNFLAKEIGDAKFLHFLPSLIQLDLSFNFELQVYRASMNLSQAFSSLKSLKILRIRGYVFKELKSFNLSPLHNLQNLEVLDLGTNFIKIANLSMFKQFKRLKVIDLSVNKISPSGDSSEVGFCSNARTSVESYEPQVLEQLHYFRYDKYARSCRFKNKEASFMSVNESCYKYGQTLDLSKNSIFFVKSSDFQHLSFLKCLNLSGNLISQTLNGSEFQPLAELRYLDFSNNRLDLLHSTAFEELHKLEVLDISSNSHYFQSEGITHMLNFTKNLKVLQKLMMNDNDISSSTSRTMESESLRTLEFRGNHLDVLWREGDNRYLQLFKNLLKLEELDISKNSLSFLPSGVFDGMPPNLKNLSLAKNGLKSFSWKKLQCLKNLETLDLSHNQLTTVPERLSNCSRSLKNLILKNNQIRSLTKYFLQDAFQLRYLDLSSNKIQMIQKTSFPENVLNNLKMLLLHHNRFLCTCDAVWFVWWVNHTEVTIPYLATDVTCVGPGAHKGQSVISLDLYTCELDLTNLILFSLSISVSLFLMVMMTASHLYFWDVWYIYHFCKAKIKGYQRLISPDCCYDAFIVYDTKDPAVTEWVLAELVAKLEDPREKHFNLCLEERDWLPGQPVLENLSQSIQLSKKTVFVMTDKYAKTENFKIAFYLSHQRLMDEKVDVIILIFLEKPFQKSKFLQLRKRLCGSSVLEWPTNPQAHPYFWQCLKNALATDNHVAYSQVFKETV
Assay type: cell-based
Procedure: In such examples, inhibition of TLR7 activity can be identified by observation of an overall decreased TLR7 response of the cell population, or a lower proportion of cells having TLR7-positive activity as compared to positive control condition in which cells are treated with TLR7 agonist in the absence of the oligonucleotide (or in the presence of an appropriate control inhibitory agent). In one example, 293XLhTLR7 (referred to as HEK-TLR7) cells are transfected with pNF-κB-Luc4 reporter, incubated with an oligonucleotide, and then stimulated with R848. TLR7 activity can be determined by a luciferase assay, which measures activated NF-κB by luminescence. TLR7 activity can also be analysed by measuring cytokine levels, for example by ELISA. […] TLR7 activity may then be assessed by the gene or protein expression of TLR7-responsive genes, such as Tnfα and Oas3.
For cGAS stimulations, cells were treated for indicated duration with ASOs, prior to transfection with ISD70 (human cells) or ISD45 (mouse cells) (the ASOs were not washed off prior to ISD transfection unless otherwise indicated). The cGAS ligands ISD45 (Stetson and Medzhitov, 2006) and ISD70 (also known as VACV-70 (Unterholzner et al., 2010)) (Table 1) were resuspended as follows: 5 1d of sense and 5 μl of antisense strands at 10 μg/μl were added to 90 μl PBS under sterile conditions, heated at 75° C. for 30 min, prior to letting cool down at room temperature and aliquoting (stock at 1 μg/1 l). The ISDs were transfected at a concentration of […] at a ratio of 1 μg:1 μl with Lipofectamine 2000 in Opti-MEM (Thermo Fisher Scientific). HEK-TLR3, HEK-TLR7 and […] were treated with indicated concentration of ASOs for 20-50 min, prior to stimulation with poly(I:C) (Invivogen), R848 (Invivogen), Motolimod (MedChemExpress) and the Class B CpG oligonucleotides ODN 2006 (synthesised by IDT and resuspended in RNase-free TE buffer [Table 1]), respectively. The TLR2/1 agonist PAM3CSK4 (Invivogen), the TLR4 agonist lipopolysaccharide (Invivogen), the Class B CpG oligonucleotides ODN 1826 (synthesised by IDT and resuspended in RNase-free TE buffer), the mouse Sting agonist DMXAA (Cayman) and the human STING agonist (compound #3 from (Raanjulu et al., 2018), referred to as GSK herein—kind gift from Cancer Therapeutics CRC, Australia) were used at indicated concentrations. Aspirin (Sigma—A2093) was resuspended in pure medium to 10 mM, filter sterilised and added to the cells at 2 mM final. All ASOs were synthesised by Integrated DNA Technologies (IDT), and resuspended in RNase-free TE buffer, pH 8.0 (Thermo Fisher Scientific). Cell viability was assessed by adding 1× fresh resazurin solution to the wells (10λ solution made up with 7 mg resazurin [Sigma—R7017] dissolved in 3.5 ml PBS, sterile filtered at […]) for 4 h, prior to reading at with a Fluostar OPTIMA (BMG LABTECH) plate-reader (fluorescence: Excitation 535 nm, Emission 590); wells with medium only and 1× resazurin were used as blanks.
Following transfection, the cells were collected from the 6-wells and aliquoted into 96-wells, just before ASO and overnight TLR stimulation (as above described). Similarly, the LL171 cells expressing and ISRE-Luc reporter were treated overnight.

Substance | inhibition of TLR7 by 3-mer DNA PS oligos
dT*dC*dT [TCT] | two most potent DNA 3-mers inhibiting TLR7
dT*dT*dT [TTT] | two most potent DNA 3-mers inhibiting TLR7
